The conditions of data set [1]: 4 days post administration; free doxorubicin 12.5, micelle 25, unimer 6.3 mg drug/kg body weight; Balb/C mice bearing C26 tumors.
Experimental: Animals dosed near the maximum tolerated amount of doxorubicin lose body weight, and weight loss 4 days post doxorubicin administration is used in this experiment as a gross indicator of toxicity. Balb/C mice bearing C26 colon carcinoma tumors were systemically administered PBS, free doxorubicin, micelle doxorubicin-ELP, or unimer doxorubicin-ELP at 0, 12.5, 25, and 6.3 mg drug/kg body weight respectively. […] Error bars indicate the standard deviation (n=5).
The toxicity of doxorubicin-ELP was estimated by body weight loss. Animals that were dosed near the maximum tolerated amount of free doxorubicin, micelle doxorubicin-ELP or unimer doxorubicin-ELP lost body weight, and the weight observed 4 days after the injection of the doxorubicin composition was taken as a gross indicator of toxicity. Balb/C mice bearing C26 colon carcinoma tumors were systemically administered either PBS as a control or free doxorubicin, micelle doxorubicin-ELP, or unimer doxorubicin-ELP at 12.5, 25, and 6.3 mg drug/kg body weight, respectively. […] Error bars indicate the standard deviation (n=5).
The subject of data set [2] is C26 colon carcinoma tumor. Briefly: Survival of tumor-bearing mice, C26 colon carcinoma. The data set is classed as in vivo, Balb/C mice. The note with it: free doxorubicin 12.5, micelle 25 mg drug/kg body weight, sacrificed after >15% body weight loss, Kaplan Meier analysis. Here is the method:
Eight days after subcutaneous implantation of C26 colon carcinoma tumor cells, Balb/C mice were randomized and treated. The mice were systemically administered either a PBS control or does of approximately equal toxicity of free doxorubicin at 12.5 mg drug/kg body weight or 25 mg drug/kg body weight micelle doxorubicin-ELP. Mice were sacrificed after losing >15% of their body weight due to tumor burden. The treatment groups were blinded during measurement.
The data shown in FIG. 13 were determined as follows: Eight days after subcutaneous implantation of C26 colon carcinoma tumor cells, Balb/C mice were randomized and treated. […] The mice were sacrificed after losing >15% of their body weight due to tumor burden. The treatment groups were blinded during measurement.

In the case of `COc1cccc2c1C(=O)c1c(O)c3c(c(O)c1C2=O)C[C@@](O)(C(=O)CO)C[C@@H]3O[C@H]1C[C@H](N)[C@H](O)[C@H](C)O1` [free doxorubicin, doxorubicin], the “toxicity estimated by body weight loss” value in data set [1] is listed as “approximately equally toxic”. For the same compound, the survival time result in data set [2] is “did not significantly effect survival time”; in data set [2] (listed as Free doxorubicin), “did not have any significant effect on survival”.
